Assay results taken from publication PMC9569593, “Measurement of Hepatic CYP3A4 and 2D6 Activity Using Radioiodine-Labeled O-Desmethylvenlafaxine” (International Journal of Molecular Sciences, 2022).
Read-outs that look alike come from different tables or passages of the source.

Legend:
CYP = conditions: for fraction of 125I-ODV / peak of 125I-ODV metabolite: NADPH [+]
Description: Animal studies were approved by the Animal Care Committee at Kanazawa University (AP-173851) and were conducted in accordance with international standards for animal welfare and institutional guidelines. For preparation of the pooled mouse liver homogenates (MLH), three six-week-old ddY mice (Japan SLC, Tokyo, Japan) were euthanized under anesthesia with isoflurane, and the removed livers were weighed. After adding Krebs–Ringer phosphate buffer (pH 7.4), the pooled livers were homogenized with an ultrasonic homogenizer (SONIFIER250, Branson, MO, USA), and the protein content was measured according to the bicinchoninic acid method. The pooled MLH was stored at −80 °C.
For analysis of NADPH-mediated metabolism of ^125I-ODV, NADPH was used as an energy source of CYP-mediated metabolism. Adding an NADPH-generating system produced a state in which CYP was active. NADPH-mediated metabolism of ^125I-ODV was examined in a mixture consisting of an NADPH-generating system (0.5 mM β-NADP^+, 5 mM MgCl2, 5 mM G6P, and 1 U/mL G6PD), 100 mM sodium potassium phosphate buffer (pH 7.4), 50 μM EDTA disodium salt, and 1000 μg protein/20 μL pooled MLH in a final volume of 250 μL (NADPH [+]). […] The samples were incubated at 37 °C for 5, 15, 30, and 60 min with gentle shaking, ethanol was added to stop the reactions, and the samples were centrifuged at 18,000 g for 5 min. The supernatants in each sample were analyzed by HPLC. The mobile phase consisted of 70% 20 mM KH2PO4 buffer (pH 4.0) and 30% acetonitrile at a flow rate of 1.0 mL/min (n = 3).

[1] = for Biological distribution, Blood / Biological distribution, Brain / Biological distribution, Gallbladder / Biological distribution, Heart / Biological distribution, Kidney / Biological distribution, Large intestines / Biological distribution, Liver / Biological distribution, Lung / Biological distribution, Pancreas / Biological distribution, Small intestines / Biological distribution, Spleen / Biological distribution, Stomach / Biological distribution, Thyroid / Biological distribution, Urine: control normal mice, i.v.
Description: For biological distribution in normal mice, ^125I-ODV was prepared to a radioactivity concentration of 185 kBq/mL by adding saline. A total of 20 mice fasted for 6 hr were administered ^125I-ODV via the tail vein (18.5 kBq/100 µL/mouse). After 5, 15, 30, and 60 min, normal mice were euthanized under isoflurane anesthesia (n = 4), and the following tissues were collected: blood, brain, heart, lung, thyroid, gallbladder, liver, spleen, pancreas, stomach, small intestines, large intestines, and kidney. Tissues were weighed, and radioactivity was quantified using a γ-ray counter to calculate the %ID or percent injected dose per gram of tissue (%ID/g).

[2] = normal mice, after 5 min of administration

With `CN(C)CC(c1ccc(O)c([125I])c1)C1(O)CCCCC1` (stereo not drawn) [^125I-ODV, iodine-125-labeled O-desmethylvenlafaxine] the “fraction of 125I-ODV” value (CYP; end value of the decrease) was ~54%, the “peak of 125I-ODV metabolite” value (CYP; end value of the increase) was ~46% and the “fraction of 125I-ODV” value (CYP; start value of the decrease) was “about 85%”. The “peak of 125I-ODV metabolite” value (CYP; start value of the increase) was “about 0%”, the percentage of metabolite (CYP; NADPH [−], 37 °C, 15 min) was 1.52% and the “Biological distribution, Blood” value ([1]; 5 min) was 1.89 %ID/g. The “Biological distribution, Brain” value ([1]; 5 min) was 0.80 %ID/g, the “Biological distribution, Gallbladder” value ([1]; 5 min) was 4.31 %ID/g and the “Biological distribution, Heart” value ([1]; 5 min) was 5.64 %ID/g. For the same compound, the “Biological distribution, Kidney” value ([1]; 5 min) was 22.95 %ID/g, the “Biological distribution, Large intestines” value ([1]; 5 min) was 1.32 %ID/organ and the “Biological distribution, Liver” value ([1]; 5 min) was 6.91 %ID/g. For the same compound, the “Biological distribution, Lung” value ([1]; 5 min) was 27.04 %ID/g, the “Biological distribution, Pancreas” value ([1]; 5 min) was 7.87 %ID/g and the “Biological distribution, Small intestines” value ([1]; 5 min) was 6.85 %ID/organ. For the same compound, the “Biological distribution, Spleen” value ([1]; 5 min) was 9.22 %ID/g, the “Biological distribution, Stomach” value ([1]; 5 min) was 2.44 %ID/organ and the “Biological distribution, Thyroid” value ([1]; 5 min) was 0.06 %ID/organ. The “Biological distribution, Urine” value ([1]; 5 min) was 0.63 %ID/organ, the “Biological distribution, Blood” value ([1]; 15 min) was 1.31 %ID/g and the “Biological distribution, Brain” value ([1]; 15 min) was 0.75 %ID/g. For the same compound, the “Biological distribution, Gallbladder” value ([1]; 15 min) was 5.26 %ID/g, the “Biological distribution, Heart” value ([1]; 15 min) was 2.71 %ID/g and the “Biological distribution, Kidney” value ([1]; 15 min) was 16.37 %ID/g. The “Biological distribution, Large intestines” value ([1]; 15 min) was 1.18 %ID/organ, the “Biological distribution, Liver” value ([1]; 15 min) was 6.04 %ID/g and the “Biological distribution, Lung” value ([1]; 15 min) was 16.75 %ID/g. For the same compound, the “Biological distribution, Pancreas” value ([1]; 15 min) was 6.04 %ID/g, the “Biological distribution, Small intestines” value ([1]; 15 min) was 7.70 %ID/organ and the “Biological distribution, Spleen” value ([1]; 15 min) was 4.79 %ID/g. For the same compound, the “Biological distribution, Stomach” value ([1]; 15 min) was 3.19 %ID/organ, the “Biological distribution, Thyroid” value ([1]; 15 min) was 0.03 %ID/organ and the “Biological distribution, Urine” value ([1]; 15 min) was 3.37 %ID/organ. For the same compound, the “Biological distribution, Blood” value ([1]; 30 min) was 1.34 %ID/g, the “Biological distribution, Brain” value ([1]; 30 min) was 0.73 %ID/g and the “Biological distribution, Gallbladder” value ([1]; 30 min) was 24.23 %ID/g. The “Biological distribution, Heart” value ([1]; 30 min) was 2.04 %ID/g, the “Biological distribution, Kidney” value ([1]; 30 min) was 14.27 %ID/g and the “Biological distribution, Large intestines” value ([1]; 30 min) was 0.68 %ID/organ. The “Biological distribution, Liver” value ([1]; 30 min) was 5.45 %ID/g, the “Biological distribution, Lung” value ([1]; 30 min) was 13.30 %ID/g and the “Biological distribution, Pancreas” value ([1]; 30 min) was 5.02 %ID/g. For the same compound, the “Biological distribution, Small intestines” value ([1]; 30 min) was 8.47 %ID/organ, the “Biological distribution, Spleen” value ([1]; 30 min) was 3.45 %ID/g and the “Biological distribution, Stomach” value ([1]; 30 min) was 2.75 %ID/organ. The “Biological distribution, Thyroid” value ([1]; 30 min) was 0.04 %ID/organ, the “Biological distribution, Urine” value ([1]; 30 min) was 3.69 %ID/organ and the “Biological distribution, Blood” value ([1]; 60 min) was 0.74 %ID/g. The “Biological distribution, Brain” value ([1]; 60 min) was 0.60 %ID/g, the “Biological distribution, Gallbladder” value ([1]; 60 min) was 33.05 %ID/g and the “Biological distribution, Heart” value ([1]; 60 min) was 1.00 %ID/g. For the same compound, the “Biological distribution, Kidney” value ([1]; 60 min) was 9.42 %ID/g, the “Biological distribution, Large intestines” value ([1]; 60 min) was 0.47 %ID/organ and the “Biological distribution, Liver” value ([1]; 60 min) was 2.89 %ID/g. The “Biological distribution, Lung” value ([1]; 60 min) was 5.01 %ID/g, the “Biological distribution, Pancreas” value ([1]; 60 min) was 2.92 %ID/g and the “Biological distribution, Small intestines” value ([1]; 60 min) was 11.03 %ID/organ. The “Biological distribution, Spleen” value ([1]; 60 min) was 1.75 %ID/g, the “Biological distribution, Stomach” value ([1]; 60 min) was 1.88 %ID/organ and the “Biological distribution, Thyroid” value ([1]; 60 min) was 0.02 %ID/organ. The “Biological distribution, Urine” value ([1]; 60 min) was 7.31 %ID/organ, the “accumulation in the kidneys” value [1, 2] was “more than 20%” and the “accumulation in the lungs” value [1, 2] was “more than 20%”.
